Data reported in PubChem BioAssay AID1259407 (Chemical Carcinogenesis Research Information System (CCRIS), 2018).
Calls of active or inactive are those of the source. No rule for the calls is given here.

Test system: CCRIS mutagenicity, Ames/micronucleus/aberration tests
Experiment: CCRIS mutagenicity studies
[1] = Test System: AMES SALMONELLA TYPHIMURIUM, Strain/Indicator: TA98, Metabolic Activation: NONE
[2] = Test System: AMES SALMONELLA TYPHIMURIUM, Strain/Indicator: TA98, Metabolic Activation: NONE, Method: PREINCUBATION
[3] = Test System: AMES SALMONELLA TYPHIMURIUM, Strain/Indicator: TA98, Metabolic Activation: S-9
[4] = Test System: AMES SALMONELLA TYPHIMURIUM, Strain/Indicator: TA100, Metabolic Activation: NONE
[5] = Test System: AMES SALMONELLA TYPHIMURIUM, Strain/Indicator: TA100, Metabolic Activation: NONE, Method: PREINCUBATION
[6] = Test System: AMES SALMONELLA TYPHIMURIUM, Strain/Indicator: TA100, Metabolic Activation: S-9
[7] = Test System: AMES SALMONELLA TYPHIMURIUM, Strain/Indicator: TA1535, Metabolic Activation: NONE, Method: PREINCUBATION
[8] = Test System: AMES SALMONELLA TYPHIMURIUM, Strain/Indicator: TA1537, Metabolic Activation: NONE, Method: PREINCUBATION

For `CC(=O)N[C@@H]1[C@@H](O[C@@H]2O[C@H](C(=O)O)[C@@H](O[C@@H]3O[C@H](CO)[C@@H](O)[C@H](O[C@@H]4O[C@H](C(=O)O)[C@@H](O)[C@H](O)[C@H]4O)[C@H]3NC(C)=O)[C@H](O)[C@H]2O)[C@H](O)[C@@H](CO)O[C@H]1O`, the mutagenic call [1] was “inactive; negative”, the mutagenic call [2] was “inactive; negative” and the mutagenic call (Test System: AMES SALMONELLA TYPHIMURIUM, Strain/Indicator: TA98, Metabolic Activation: RAT, LIVER, S-9, PHENOBARBITAL AND 5,6-BENZOFLAVONE, Method: PREINCUBATION) was “inactive; negative”. The mutagenic call (Test System: AMES SALMONELLA TYPHIMURIUM, Strain/Indicator: TA98, Metabolic Activation: RAT, LIVER, S-9, Method: PREINCUBATION) was “inactive; negative”, the mutagenic call [3] was “inactive; negative” and the mutagenic call [4] was “inactive; negative”. For the same molecule, the mutagenic call [5] was “inactive; negative”, the mutagenic call (Test System: AMES SALMONELLA TYPHIMURIUM, Strain/Indicator: TA100, Metabolic Activation: RAT, LIVER, S-9, PHENOBARBITAL AND 5,6-BENZOFLAVONE, Method: PREINCUBATION) was “inactive; negative” and the mutagenic call (Test System: AMES SALMONELLA TYPHIMURIUM, Strain/Indicator: TA100, Metabolic Activation: RAT, LIVER, S-9, Method: PREINCUBATION) was “inactive; negative”. For the same molecule, the mutagenic call [6] was “inactive; negative”, the mutagenic call (Test System: AMES SALMONELLA TYPHIMURIUM, Strain/Indicator: TA1535, Metabolic Activation: NONE) was “inactive; negative” and the mutagenic call [7] was “inactive; negative”. For the same molecule, the mutagenic call (Test System: AMES SALMONELLA TYPHIMURIUM, Strain/Indicator: TA1535, Metabolic Activation: RAT, LIVER, S-9, PHENOBARBITAL AND 5,6-BENZOFLAVONE, Method: PREINCUBATION) was “inactive; negative”, the mutagenic call (Test System: AMES SALMONELLA TYPHIMURIUM, Strain/Indicator: TA1535, Metabolic Activation: RAT, LIVER, S-9, Method: PREINCUBATION) was “inactive; negative” and the mutagenic call (Test System: AMES SALMONELLA TYPHIMURIUM, Strain/Indicator: TA1535, Metabolic Activation: S-9) was “inactive; negative”. For the same molecule, the mutagenic call (Test System: AMES SALMONELLA TYPHIMURIUM, Strain/Indicator: TA1537, Metabolic Activation: NONE) was “inactive; negative”, the mutagenic call [8] was “inactive; negative” and the mutagenic call (Test System: AMES SALMONELLA TYPHIMURIUM, Strain/Indicator: TA1537, Metabolic Activation: RAT, LIVER, S-9, PHENOBARBITAL AND 5,6-BENZOFLAVONE, Method: PREINCUBATION) was “inactive; negative”. For the same molecule, the mutagenic call (Test System: AMES SALMONELLA TYPHIMURIUM, Strain/Indicator: TA1537, Metabolic Activation: RAT, LIVER, S-9, Method: PREINCUBATION) was “inactive; negative”, the mutagenic call (Test System: AMES SALMONELLA TYPHIMURIUM, Strain/Indicator: TA1537, Metabolic Activation: S-9) was “inactive; negative” and the mutagenic call (Test System: E. COLI, Strain/Indicator: WP2 UVRA, Metabolic Activation: NONE) was “inactive; negative”. For the same molecule, the mutagenic call (Test System: E. COLI, Strain/Indicator: WP2 UVRA, Metabolic Activation: S-9) was “inactive; negative”, the mutagenic call (Test System: E.COLI, Strain/Indicator: WP2 UVRA, Metabolic Activation: NONE, Method: PREINCUBATION) was “inactive; negative” and the mutagenic call (Test System: E.COLI, Strain/Indicator: WP2 UVRA, Metabolic Activation: RAT, LIVER, S-9, PHENOBARBITAL AND 5,6-BENZOFLAVONE, Method: PREINCUBATION) was “inactive; negative”. For the same molecule, the mutagenic call (Test System: E.COLI, Strain/Indicator: WP2 UVRA, Metabolic Activation: RAT, LIVER, S-9, Method: PREINCUBATION) was “inactive; negative”.
`O[C@H]1C=Cc2c(cc3c4c(cc5ccccc53)-c3ccccc3-c24)[C@@H]1O` was tested, and the mutagenic call (Test System: AMES SALMONELLA TYPHIMURIUM, Strain/Indicator: TA100, Metabolic Activation: MOUSE, LIVER, S-9, 3-METHYLCHOLANTHRENE, Method: STANDARD PLATE) was “active; positive” and the mutagenic call (Test System: AMES SALMONELLA TYPHIMURIUM, Strain/Indicator: TA100, Metabolic Activation: RAT, LIVER, S-9, 3-METHYLCHOLANTHRENE, Method: STANDARD PLATE) was “active; positive”.
With `NCCCN` the mutagenic call (Test System: AMES SALMONELLA TYPHIMURIUM, Strain/Indicator: TA98, Metabolic Activation: HAMSTER, LIVER, S-9, AROCLOR 1254 (10%), Method: PREINCUBATION) was “inactive; negative”, the mutagenic call [2] was “inactive; negative” and the mutagenic call (Test System: AMES SALMONELLA TYPHIMURIUM, Strain/Indicator: TA98, Metabolic Activation: RAT, LIVER, S-9, AROCLOR 1254 (10%), Method: PREINCUBATION) was “inactive; negative”. The mutagenic call (Test System: AMES SALMONELLA TYPHIMURIUM, Strain/Indicator: TA100, Metabolic Activation: HAMSTER, LIVER, S-9, AROCLOR 1254 (10%), Method: PREINCUBATION) was “inactive; negative”, the mutagenic call [5] was “inactive; negative” and the mutagenic call (Test System: AMES SALMONELLA TYPHIMURIUM, Strain/Indicator: TA100, Metabolic Activation: RAT, LIVER, S-9, AROCLOR 1254 (10%), Method: PREINCUBATION) was “inactive; negative”. The mutagenic call (Test System: AMES SALMONELLA TYPHIMURIUM, Strain/Indicator: TA1535, Metabolic Activation: HAMSTER, LIVER, S-9, AROCLOR 1254 (10%), Method: PREINCUBATION) was “inactive; negative”, the mutagenic call [7] was “inactive; negative” and the mutagenic call (Test System: AMES SALMONELLA TYPHIMURIUM, Strain/Indicator: TA1535, Metabolic Activation: RAT, LIVER, S-9, AROCLOR 1254 (10%), Method: PREINCUBATION) was “inactive; negative”. The mutagenic call (Test System: AMES SALMONELLA TYPHIMURIUM, Strain/Indicator: TA1537, Metabolic Activation: HAMSTER, LIVER, S-9, AROCLOR 1254 (10%), Method: PREINCUBATION) was “inactive; negative”, the mutagenic call [8] was “inactive; negative” and the mutagenic call (Test System: AMES SALMONELLA TYPHIMURIUM, Strain/Indicator: TA1537, Metabolic Activation: RAT, LIVER, S-9, AROCLOR 1254 (10%), Method: PREINCUBATION) was “inactive; negative”.
For `CC1(C)[C@@H]2CC[C@@]1(C)[C@@H](O)C2`, the mutagenic call (Test System: AMES SALMONELLA TYPHIMURIUM, Strain/Indicator: TA97, Metabolic Activation: NONE, Method: PREINCUBATION) was “inactive; negative”, the mutagenic call (Test System: AMES SALMONELLA TYPHIMURIUM, Strain/Indicator: TA97, Metabolic Activation: NONE, Method: PREINCUBATION (20 MIN)) was “inactive; negative” and the mutagenic call (Test System: AMES SALMONELLA TYPHIMURIUM, Strain/Indicator: TA97, Metabolic Activation: RAT, LIVER, S-9, AROCLOR 1254, Method: PREINCUBATION) was “inactive; negative”. The mutagenic call (Test System: AMES SALMONELLA TYPHIMURIUM, Strain/Indicator: TA97, Metabolic Activation: S-9, Method: PREINCUBATION (20 MIN)) was “inactive; negative”, the mutagenic call (Test System: AMES SALMONELLA TYPHIMURIUM, Strain/Indicator: TA98, Metabolic Activation: NONE, Method: PREINCUBATION (20 MIN)) was “inactive; negative” and the mutagenic call (Test System: AMES SALMONELLA TYPHIMURIUM, Strain/Indicator: TA98, Metabolic Activation: S-9, Method: PREINCUBATION (20 MIN)) was “inactive; negative”. For the same molecule, the mutagenic call (Test System: AMES SALMONELLA TYPHIMURIUM, Strain/Indicator: TA100, Metabolic Activation: NONE, Method: PREINCUBATION (20 MIN)) was “inactive; negative”, the mutagenic call (Test System: AMES SALMONELLA TYPHIMURIUM, Strain/Indicator: TA100, Metabolic Activation: S-9, Method: PREINCUBATION (20 MIN)) was “inactive; negative” and the mutagenic call (Test System: AMES SALMONELLA TYPHIMURIUM, Strain/Indicator: TA102, Metabolic Activation: NONE, Method: PREINCUBATION) was “inactive; negative”. For the same molecule, the mutagenic call (Test System: AMES SALMONELLA TYPHIMURIUM, Strain/Indicator: TA102, Metabolic Activation: RAT, LIVER, S-9, AROCLOR 1254, Method: PREINCUBATION) was “inactive; negative”.
In the case of `Nc1nc2c(ncn2CCC(CO)CO)c(=O)[nH]1`, the mutagenic call (End Point: IN VITRO CHROMOSOMAL ABERRATIONS, Test System: CHO CELLS (CHO-HSVTK), Metabolic Activation: NONE) is reported as “active; positive (pulverized chromosome and condensation defects); concentration chosen”.
`c1cc2ccc3nc4ccccc4c4ccc(c1)c2c34` was tested, and the mutagenic call [1] was “inactive; negative”, the mutagenic call [3] was “active; positive” and the mutagenic call [4] was “inactive; negative”. The mutagenic call [6] was “active; positive”.
In the case of `O=c1cc(-c2ccc(O)cc2)oc2cc(O)c([C@@H]3O[C@H](CO)[C@@H](O)[C@H](O)[C@H]3O)c(O)c12`, the mutagenic call (Test System: Ames Salmonella typhimurium, Strain/Indicator: TA98, Metabolic Activation: None, Method: Standard plate) is reported as “inactive; negative” and the mutagenic call (Test System: Ames Salmonella typhimurium, Strain/Indicator: TA98, Metabolic Activation: Rat, Liver, S-9, Aroclor 1254, Method: Standard plate) is reported as “inactive; negative”.
In the case of `NCCCNCCSP(=O)(O)O`, the mutagenic call (End Point: In vivo micronucleus, Test System: Bone marrow polychromatic erythrocytes, Species: Mouse, Strain/Sex: C57BL/6J/Male, Route: Intraperitoneal) is reported as “inactive; negative (significant increase in pce/nce ratio only when administered before ga”.
